From patent US12077503B2, “Substituted cyclic amides and their use as herbicides” (FMC CORPORATION, priority 2015, dated 2024)

Key:
Assay type in all cases: in vivo
[1] = system: redroot pigweed (Amaranthus retroflexus); assay: Test G Post-Emergence Protocol; conditions: Amaranthus retroflexus, post-emergence, 312 h, read-out: Pigweed, Redroot damage rating; for pest or weed control at 15.625 g/ha: 15.625 g ai/ha, evaluated after 13 days (100=total damage to plant; 0=no damage to plant); for pest or weed control at 62.5 g/ha: 62.5 g ai/ha; for pest or weed control at 62.5 g/ha / pest or weed control at 250 g/ha: evaluated after 13 days, 100=total damage to plant, 0=no damage to plant; for pest or weed control at 250 g/ha: 250 g ai/ha
Outline: (§1)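 Values are percent visual injury at 13 days after treatment (0 none, 100 total). Treatment was a post-emergence spray at 15.625, 62.5 or 250 g/ha on 8-day-old pot plants kept at 24/16 °C.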

[2] = system: barnyardgrass (Echinochloa crus-galli); assay: Test G Post-Emergence Protocol; conditions: Echinochloa crus-galli, post-emergence, 312 h, read-out: Barnyardgrass damage rating; for pest or weed control at 15.625 g/ha: 15.625 g ai/ha, evaluated after 13 days (100=total damage to plant; 0=no damage to plant); for pest or weed control at 62.5 g/ha: 62.5 g ai/ha; for pest or weed control at 62.5 g/ha / pest or weed control at 250 g/ha: evaluated after 13 days, 100=total damage to plant, 0=no damage to plant; for pest or weed control at 250 g/ha: 250 g ai/ha
Outline: as §1

[3] = system: velvetleaf (Abutilon theophrasti); assay: Test G Post-Emergence Protocol; conditions: Abutilon theophrasti, post-emergence, 312 h, read-out: Velvetleaf damage rating; for pest or weed control at 15.625 g/ha: 15.625 g ai/ha, evaluated after 13 days (100=total damage to plant; 0=no damage to plant); for pest or weed control at 62.5 g/ha: 62.5 g ai/ha; for pest or weed control at 62.5 g/ha / pest or weed control at 250 g/ha: evaluated after 13 days, 100=total damage to plant, 0=no damage to plant; for pest or weed control at 250 g/ha: 250 g ai/ha
Outline: as §1

[4] = system: giant foxtail (Setaria faberi); assay: Test G Post-Emergence Protocol; conditions: Setaria faberi, post-emergence, 312 h, read-out: Foxtail, Giant damage rating; for pest or weed control at 15.625 g/ha: 15.625 g ai/ha, evaluated after 13 days (100=total damage to plant; 0=no damage to plant); for pest or weed control at 62.5 g/ha: 62.5 g ai/ha; for pest or weed control at 62.5 g/ha / pest or weed control at 250 g/ha: evaluated after 13 days, 100=total damage to plant, 0=no damage to plant; for pest or weed control at 250 g/ha: 250 g ai/ha
Outline: as §1

corn (Zea mays) [5] = assay: Test G Post-Emergence Protocol; conditions: Zea mays, post-emergence, 312 h, read-out: Corn damage rating; for plant injury at 15.625 g/ha: 15.625 g ai/ha, evaluated after 13 days (100=total damage to plant; 0=no damage to plant); for plant injury at 62.5 g/ha: 62.5 g ai/ha; for plant injury at 62.5 g/ha / plant injury at 250 g/ha: evaluated after 13 days, 100=total damage to plant, 0=no damage to plant; for plant injury at 250 g/ha: 250 g ai/ha
Outline: as §1

[6] = system: ivy-leaved morning glory (Ipomoea hederacea); assay: Test G Post-Emergence Protocol; conditions: Ipomoea, post-emergence, 312 h, read-out: Morningglory, Ivy-leaved damage rating; for pest or weed control at 15.625 g/ha: 15.625 g ai/ha, evaluated after 13 days (100=total damage to plant; 0=no damage to plant); for pest or weed control at 62.5 g/ha: 62.5 g ai/ha; for pest or weed control at 62.5 g/ha / pest or weed control at 250 g/ha: evaluated after 13 days, 100=total damage to plant, 0=no damage to plant; for pest or weed control at 250 g/ha: 250 g ai/ha
Outline: as §1

[7] = system: redroot pigweed (Amaranthus retroflexus); assay: Test G Pre-Emergence Protocol; conditions: Amaranthus retroflexus, pre-emergence, 312 h, evaluated after 13 days; for pest or weed control at 15.625 g/ha: 15.625 g ai/ha; for pest or weed control at 15.625 g/ha / pest or weed control at 250 g/ha: read-out: Pigweed, Redroot damage rating (100=total damage to plant; 0=no damage to plant); for pest or weed control at 62.5 g/ha: 62.5 g ai/ha, 100=total damage to plant, 0=no damage to plant, read-out: Pigweed, Redroot damage rating; for pest or weed control at 250 g/ha: 250 g ai/ha
Outline: (§2)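 Under a 24/16° C day/night regime with 14 h light and 65% humidity, sown pots were sprayed after one day with compound (15.625, 62.5 or 250 g/ha; 50:50 acetone/water, 0.5% Tween 20). Damage was assessed visually 13 days later, 0 to 100.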

[8] = system: barnyardgrass (Echinochloa crus-galli); assay: Test G Pre-Emergence Protocol; conditions: Echinochloa crus-galli, pre-emergence, 312 h, evaluated after 13 days; for pest or weed control at 15.625 g/ha: 15.625 g ai/ha; for pest or weed control at 15.625 g/ha / pest or weed control at 250 g/ha: read-out: Barnyardgrass damage rating (100=total damage to plant; 0=no damage to plant); for pest or weed control at 62.5 g/ha: 62.5 g ai/ha, 100=total damage to plant, 0=no damage to plant, read-out: Barnyardgrass damage rating; for pest or weed control at 250 g/ha: 250 g ai/ha
Outline: as §2

[9] = system: velvetleaf (Abutilon theophrasti); assay: Test G Pre-Emergence Protocol; conditions: Abutilon theophrasti, pre-emergence, 312 h, evaluated after 13 days; for pest or weed control at 15.625 g/ha: 15.625 g ai/ha; for pest or weed control at 15.625 g/ha / pest or weed control at 250 g/ha: read-out: Velvetleaf damage rating (100=total damage to plant; 0=no damage to plant); for pest or weed control at 62.5 g/ha: 62.5 g ai/ha, 100=total damage to plant, 0=no damage to plant, read-out: Velvetleaf damage rating; for pest or weed control at 250 g/ha: 250 g ai/ha
Outline: as §2

[10] = system: giant foxtail (Setaria faberi); assay: Test G Pre-Emergence Protocol; conditions: Setaria faberi, pre-emergence, 312 h, evaluated after 13 days; for pest or weed control at 15.625 g/ha: 15.625 g ai/ha; for pest or weed control at 15.625 g/ha / pest or weed control at 250 g/ha: read-out: Foxtail, Giant damage rating (100=total damage to plant; 0=no damage to plant); for pest or weed control at 62.5 g/ha: 62.5 g ai/ha, 100=total damage to plant, 0=no damage to plant, read-out: Foxtail, Giant damage rating; for pest or weed control at 250 g/ha: 250 g ai/ha
Outline: as §2

corn (Zea mays) [11] = assay: Test G Pre-Emergence Protocol; conditions: Zea mays, pre-emergence, 312 h, evaluated after 13 days; for plant injury at 15.625 g/ha: 15.625 g ai/ha; for plant injury at 15.625 g/ha / plant injury at 250 g/ha: read-out: Corn damage rating (100=total damage to plant; 0=no damage to plant); for plant injury at 62.5 g/ha: 62.5 g ai/ha, 100=total damage to plant, 0=no damage to plant, read-out: Corn damage rating; for plant injury at 250 g/ha: 250 g ai/ha
Outline: as §2

[12] = system: ivy-leaved morning glory (Ipomoea hederacea); assay: Test G Pre-Emergence Protocol; conditions: Ipomoea, pre-emergence, 312 h, evaluated after 13 days; for pest or weed control at 15.625 g/ha: 15.625 g ai/ha; for pest or weed control at 15.625 g/ha / pest or weed control at 250 g/ha: read-out: Morningglory, Ivy-leaved damage rating (100=total damage to plant; 0=no damage to plant); for pest or weed control at 62.5 g/ha: 62.5 g ai/ha, 100=total damage to plant, 0=no damage to plant, read-out: Morningglory, Ivy-leaved damage rating; for pest or weed control at 250 g/ha: 250 g ai/ha
Outline: as §2

| Structure (SMILES) | pest or weed control at 15.625 g/ha [1] [%] | pest or weed control at 62.5 g/ha [1] [%] | pest or weed control at 250 g/ha [1] [%] | pest or weed control at 15.625 g/ha [2] [%] | pest or weed control at 62.5 g/ha [2] [%] | pest or weed control at 250 g/ha [2] [%] | pest or weed control at 15.625 g/ha [3] [%] | pest or weed control at 62.5 g/ha [3] [%] | pest or weed control at 250 g/ha [3] [%] | pest or weed control at 15.625 g/ha [4] [%] | pest or weed control at 62.5 g/ha [4] [%] | pest or weed control at 250 g/ha [4] [%] | plant injury at 15.625 g/ha (corn (Zea mays) [5]) [%] | plant injury at 62.5 g/ha (corn (Zea mays) [5]) [%] | plant injury at 250 g/ha (corn (Zea mays) [5]) [%] | pest or weed control at 15.625 g/ha [6] [%] | pest or weed control at 62.5 g/ha [6] [%] | pest or weed control at 250 g/ha [6] [%] | pest or weed control at 15.625 g/ha [7] [%] | pest or weed control at 62.5 g/ha [7] [%] | further results |
| --- | --- | --- | --- | --- | --- | --- | --- | --- | --- | --- | --- | --- | --- | --- | --- | --- | --- | --- | --- | --- | --- |
| COC(=O)c1cc([C@H]2CN(C)C(=O)[C@@H]2C(=O)Nc2cccc(F)c2F)ccc1F (racemic) [Compound 1678] | 10 | 10 | 30 | 0 | 10 | 30 | 0 | 0 | 0 | 0 | 10 | 20 | 0 | 0 | 0 | 0 | 0 | 0 | 0 | 0 | pest or weed control at 250 g/ha [7]: 0%; pest or weed control at 15.625 g/ha [8]: 0%; pest or weed control at 62.5 g/ha [8]: 0%; pest or weed control at 250 g/ha [8]: 0%; pest or weed control at 15.625 g/ha [9]: 0%; pest or weed control at 62.5 g/ha [9]: 0%; pest or weed control at 250 g/ha [9]: 0%; pest or weed control at 15.625 g/ha [10]: 0%; pest or weed control at 62.5 g/ha [10]: 0%; pest or weed control at 250 g/ha [10]: 0%; plant injury at 15.625 g/ha (corn (Zea mays) [11]): 0%; plant injury at 62.5 g/ha (corn (Zea mays) [11]): 0%; plant injury at 250 g/ha (corn (Zea mays) [11]): 0%; pest or weed control at 15.625 g/ha [12]: 0%; pest or weed control at 62.5 g/ha [12]: 0%; pest or weed control at 250 g/ha [12]: 0% |
| Cc1cc(C)cc([C@H]2CN(C)C(=O)[C@@H]2C(=O)Nc2ccccc2S(C)(=O)=O)c1 (racemic) [Compound 1727] | 0 | 0 | 0 | 20 | 70 | 70 | 0 | 0 | 10 | 30 | 80 | 80 | 0 | 0 | 10 | 0 | 30 | 50 | 0 | 0 | pest or weed control at 250 g/ha [7]: 30%; pest or weed control at 15.625 g/ha [8]: 30%; pest or weed control at 62.5 g/ha [8]: 40%; pest or weed control at 250 g/ha [8]: 80%; pest or weed control at 15.625 g/ha [9]: 0%; pest or weed control at 62.5 g/ha [9]: 0%; pest or weed control at 250 g/ha [9]: 0%; pest or weed control at 15.625 g/ha [10]: 50%; pest or weed control at 62.5 g/ha [10]: 60%; pest or weed control at 250 g/ha [10]: 80%; plant injury at 15.625 g/ha (corn (Zea mays) [11]): 0%; plant injury at 62.5 g/ha (corn (Zea mays) [11]): 0%; plant injury at 250 g/ha (corn (Zea mays) [11]): 0%; pest or weed control at 15.625 g/ha [12]: 0%; pest or weed control at 62.5 g/ha [12]: 0%; pest or weed control at 250 g/ha [12]: 10% |
